Values of other authors in patent US20160375234A1, “[…] METHODS AND COMPOSITIONS FOR DIAGNOSING AND TREATING BREAST CONDITIONS” (ATOSSA GENETIC INC., priority 2014, published 2016).

System: early-stage, HER2-overexpressing or -amplified breast cancer
Conditions: patients with early-stage, presurgical

For CS(=O)(=O)CCNCc1ccc(-c2ccc3ncnc(Nc4ccc(OCc5cccc(F)c5)c(Cl)c4)c3c2)o1 [lapatinib], the “growth of breast premalignancy (including ADH and DCIS) and invasive cancer” value is listed as “suppressed growth”.
